The text below walks through data of patent publication US12605354B2, “Azelaic acid esters in the treatment or prevention of dyslipidemia and associated conditions” (NEW FRONTIER LABS, LLC, priority 2020, dated 2026).

The subject of this experiment is subject, with diet induced insulin resistance and diabetes. As to the kind of experiment: Example 2: plasma glucose in OGTT after buccal or gastric delivery of DEA. The note with it: for plasma glucose levels during OGTT: 0, 1, 2, 4 hours, FIG. 16. The format is in vivo, human. The source says: Described in this example is an evaluation of the effects of alkyl azelates, such as DEA, on certain markers of insulin resistance and dyslipidemia, namely, blood plasma glucose, insulin levels and/or lipid levels, when administered either for buccal delivery or for gastric delivery in a subject, with diet induced insulin resistance and diabetes with a BMI of approximately 27.
Diethyl azelate was synthesized from azelaic acid and ethyl alcohol sing the standard acid-catalyzed esterification followed by fractional distillation to produce DEA to 99% purity as determined by chromatography-mass spectrometry (GC-MS). The 99% distilled DEA distillation product was administered in unformulated, unencapsulated, etc. form (i.e., “as is”) for buccal delivery as indicated below.
For gastric delivery, the 99% DEA distillation product was placed in a hard gelatin capsule, size 00 (PureCaps USA, Philmont, NY) and administered for gastric delivery by swallowing with a drink of water.
Fasting blood glucose levels were measured using UniStrip blood glucose test strips (UniStrip Technologies LLC, Charlotte, NC) and OneTouchUltra 2 blood glucose meter (LifeScan OneTouch, Tampa. FL).

For `CCOC(=O)CCCCCCCC(=O)OCC` [DEA, diethyl azelate], the “improvement in plasma glucose levels, buccal relative to gastric delivery” value (at 0 hour and 4 hours after 75 grams of glucose in OGTT, FIG. 17, T test) is “significantly significant greater improvement”. Also, the “plasma glucose levels during OGTT” value is “lowered (i.e., improved) plasma glucose levels at most tested DEA dosages and post-glucose ingestion time points” (buccal delivery vs 0 mg/kg, more pronounced at 0.5 mg/kg); “lowered (i.e., improved) plasma glucose levels at most tested DEA dosages and post-glucose ingestion time points” (gastric delivery vs 0 mg/kg, more pronounced at 0.25 mg/kg). For the setting “buccal, 0.5-4 mg/kg vs 0, 0, 1, 2, 4 hours after 75 grams of glucose, FIG. 10, most pronounced at 0.5 and 1 mg/kg”, the “plasma glucose concentrations during OGTT” value was “lowered (improved) plasma glucose levels”. In addition, the “plasma glucose concentrations during fasting OGTT” value (buccal, 0.5-4 mg/kg vs 0, FIG. 11, most pronounced at 0.5 and 1 mg/kg) is “lowered (improved) plasma glucose levels”. Also, the “plasma glucose concentrations during OGTT at 1 hour” value (buccal, 0.5-4 mg/kg vs 0, FIG. 12, most pronounced at 0.5 mg/kg) is “lowered (improved) plasma glucose levels in the setting of OGTT at all DEA dosage amounts”. Further, the “plasma glucose concentrations during OGTT at 2 hours” value (buccal, 0.5-4 mg/kg vs 0, FIG. 13, most pronounced at 0.5 and 1 mg/kg) is given as “lowered (improved) plasma glucose levels in the setting of OGTT at all DEA dosage amounts”. Further, where the note is “buccal, 0.5-4 mg/kg vs 0, FIG. 14”, the “plasma glucose concentrations during OGTT at 4 hours” value was “lowered (improved) plasma glucose levels in the setting of OGTT at the 0.5 mg/kg, 1 mg/kg, and 4 mg/kg DEA dosage amounts”.
